Article PMC12062780, “Validation of ion mobility spectrometry ‐ mass spectrometry as a screening tool to identify type II kinase inhibitors of FGFR1 kinase” (Rapid Communications in Mass Spectrometry, 2021)
pIC50, pKd: −log10 of the molar value.

Assays:
FGFR1 [1] = molecular target: T1, FGFR1 (Homo sapiens, UniProt P11362, C488A/C584S); experiment: ESI-CIU-IMS-MS collision-induced unfolding of FGFR1 after incubation with inhibitor; settings: for IMS-MS Drift Time of unfolded conformer / Intensity vs base peak (5.5 ms) of the unfolded conformer at ca 7.6 ms: 11+ FGFR1 ions
T1 construct: made in house; host or cells: E. coli
Procedure: FGFR1 (2 μM) and inhibitors (8 μM) were incubated separately in ammonium acetate (100 mM) for 1 h at room temperature prior to analysis. A Synapt G2‐S travelling‐wave ion mobility spectrometry ‐ mass spectrometer equipped with a nano‐ESI source was used for all sample analyses (Waters Corp., Manchester, UK). Samples were analysed by nano‐ESI from in‐house fabricated gold–palladium‐coated borosilicate capillaries assembled using a P‐97 micropipette puller (Sutter Instrument Co., Novato, CA, USA) and a sputter coater (Polaron SC7620; Quorum Technologies Ltd, Kent, UK). The following instrument parameters were set: capillary voltage 1.8 kV, cone voltage 30 V, source temperature 100°C, backing pressure 9.3 mbar, travelling‐wave height 40 V, travelling‐wave speed 500 m/s, IMS He gas flow rate 150 mL/min, IMS N2 gas flow rate 50 mL/min. For the collision‐induced unfolding (CIU) experiments, the trap voltage was increased to 21 V or 24 V and the transfer voltage was maintained at 4 V. Data were processed by use of the MassLynx (version 4.1) and Driftscope software supplied with the mass spectrometer. The m/z scale was calibrated using a separate introduction of aqueous CsI at 1 mg/mL.
To see if type I and type II inhibitors affect the conformational profile of FGFR1, the protein was incubated with each inhibitor separately prior to nano‐ESI‐CIU‐IMS‐MS analysis. All charge‐state ions arising from the FGFR1–ligand complexes (selected individually by the initial quadrupole analyser) were subjected to CIU‐induced unfolding in the trap prior to IMS separation.
During these analyses, the trap energy was increased and protein unfolding was monitored by examining the drift times of the protein ions during their transit through the IMS cell.

[2] = molecular target: T2, Human FGFR1 consisting of residues 457–765 with C488A and C584S mutations (Homo sapiens, UniProt P11362, C488A/C584S); experiment: Isothermal titration calorimetry (ITC) of inhibitor binding to FGFR1; settings: 25°C, type I TKIs
T2 construct: made in house; host or cells: E. coli
Procedure: ITC was carried out using a Microcal ITC200 instrument (GE Healthcare Biosciences, Amersham, UK). FGFR1 was dialysed against the experimental buffer (20 mM Tris/HCl, 100 mM NaCl and 5 mM DTT pH 7.8) prior to titration with inhibitor. Inhibitors were dissolved in DMSO, and experimental buffer DMSO concentration was matched. Titrations were performed at 25°C with 2 μL injections of inhibitor (200 μM) every 180 s into the cell containing FGFR1 (20 μM) with stirring at 1000 rpm. Results were analysed in Origin (OriginLab, Northampton, MA, USA) and fitted using a one‐site binding model.

FGFR1 kinase domain = molecular target: T3, FGFR1 kinase domain (Homo sapiens, UniProt P11362, C488A/C584S); experiment: X-ray crystallography of FGFR1–ligand complexes (DFG loop status); format: binding; settings: co-crystal structure
T3 construct: Human FGFR1 consisting of residues 457–765 with C488A and C584S mutations; made in house; host or cells: E. coli
Procedure: Data were integrated and scaled using XDS[23] and SCALA[24] as implemented within the autoPROC software package.[25] Data reduction and structure solution by molecular replacement were carried out using programs from the CCP4 software suite.[26] […] The protein–inhibitor complex model was refined using Buster,[28] interspersed with rounds of manual model building in Coot.[29]

FGFR1 [3] = molecular target: T1, FGFR1; experiment: Microscale thermophoresis (MST), label-free; format: binding; settings: type I TKI; MST per b30 and Figure S5 (Figure 2 legend says ITC), 25°C
Procedure: Thermophoresis was used to measure the binding interactions between FGFR1 and compounds. The MST measurements were performed using a Monolith NT.LabelFree instrument (NanoTemper Technologies GmbH, Munich, Germany). In this instrument, an infrared laser beam and light (fluorescence excitation and emission) was coupled with a dichroic mirror and focused on the sample. When the IR‐laser was on, it heated a small area of the sample and created a temperature gradient. The total fluorescence of the focused area was measured when the IR‐laser was off (Fcold) and on (Fhot). The capillaries were filled with the sample (less than 5 μL was required for each capillary). The following MST settings were used: LED power 70%, MST laser power 40%, fluorescence before (5 s), MST on (30 s), fluorescence after (3 s). […] After the capillary scan thermophoresis FGFR1 was measured for 30 s in the presence of the varied concentrations of compound. Fnorm = Fhot/Fcold was analysed and plotted by NT Analysis software (NanoTemper Technologies GmbH). Fraction bound = (Fnorm – Fnorm [unbound])/(Fnorm (bound) – Fnorm (unbound)) was calculated and the binding data were fitted to a Hill function (n = 1) using the instrument analysis software. To eliminate artifacts caused by labelling or modifying proteins, the fluorescence of tryptophan residues was used to monitor the local protein concentration. […]

FGFR1 [4] = system: FGFR1; design: method as in PMID 22141913; settings: cited from earlier work
FGFR1 [5] = settings: read-out: in vitro IC50 against FGFR1; cited from earlier work

T1 sequence (P11362 with tags, fused parts or gaps C488A/C584S): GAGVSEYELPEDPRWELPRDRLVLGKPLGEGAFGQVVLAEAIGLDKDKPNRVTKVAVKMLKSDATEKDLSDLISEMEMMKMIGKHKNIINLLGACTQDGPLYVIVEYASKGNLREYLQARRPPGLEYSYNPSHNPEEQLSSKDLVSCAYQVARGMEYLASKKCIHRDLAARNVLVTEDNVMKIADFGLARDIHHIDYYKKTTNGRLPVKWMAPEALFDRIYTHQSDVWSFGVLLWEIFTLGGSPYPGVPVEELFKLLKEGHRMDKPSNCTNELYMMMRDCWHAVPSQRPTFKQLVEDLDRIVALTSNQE
T3 sequence (P11362 457-765 C488A/C584S): as the sequence (P11362 with tags, fused parts or gaps C488A/C584S) above, with G1L counted along it
T2 sequence (P11362 with tags, fused parts or gaps C488A/C584S): as the sequence (P11362 with tags, fused parts or gaps C488A/C584S) above

| IMS-MS Drift Time of unfolded conformer (FGFR1 [1]; 21 V Trap) | Intensity vs base peak (5.5 ms) of the unfolded conformer at ca 7.6 ms (FGFR1 [1]; 21 V Trap) | IMS-MS Drift Time of unfolded conformer (FGFR1 [1]; 24 V Trap) | Intensity vs base peak (5.5 ms) of the unfolded conformer at ca 7.6 ms (FGFR1 [1]; 24 V Trap) | Kd for FGFR1 [2] | FGFR1 kinase conformation bound or induced (DFG motif orientation) (FGFR1 kinase domain) | pKd (FGFR1 [3]) | SMILES | cellular activity against FGFR1 (FGFR1 [4]) | pIC50 (FGFR1 [5]) | Inhibitor class assigned from CIU profile (FGFR1 [1]; ESI-IMS-MS CIU profile) |
| --- | --- | --- | --- | --- | --- | --- | --- | --- | --- | --- |
| 7.5 ms | 29.2% | 7.7 ms | 50.8% |  |  |  | CC(C)Oc1cc(Nc2ccnc(NCc3cc(C4CC4)no3)n2)n[nH]1 [Compound B] |  |  |  |
| 7.5 ms | 25.0% | 7.5 ms | 40.7% |  |  |  | Cc1cc(Nc2nc(NCCc3cccnc3)ncc2Br)n[nH]1 [Compound C] |  |  |  |
| 7.5 ms | 27.5% | 7.7 ms | 43.2% | 36 nM |  |  | CCCc1cc(Nc2nc(NCc3ccccn3)ncc2Br)n[nH]1 [Compound D] |  |  |  |

More lines, now with the values behind:

| SMILES | IMS-MS Drift Time of unfolded conformer (FGFR1 [1]; 21 V Trap) | Intensity vs base peak (5.5 ms) of the unfolded conformer at ca 7.6 ms (FGFR1 [1]; 21 V Trap) | IMS-MS Drift Time of unfolded conformer (FGFR1 [1]; 24 V Trap) | Intensity vs base peak (5.5 ms) of the unfolded conformer at ca 7.6 ms (FGFR1 [1]; 24 V Trap) | Kd for FGFR1 [2] | FGFR1 kinase conformation bound or induced (DFG motif orientation) (FGFR1 kinase domain) | pKd (FGFR1 [3]) | cellular activity against FGFR1 (FGFR1 [4]) | pIC50 (FGFR1 [5]) | Inhibitor class assigned from CIU profile (FGFR1 [1]; ESI-IMS-MS CIU profile) |
| --- | --- | --- | --- | --- | --- | --- | --- | --- | --- | --- |
| CNC(=O)c1ccccc1Nc1cc(Nc2cn(C)nc2C)ncc1C(F)(F)F [Compound E] | 7.5 ms | 24.2% | 7.5 ms | 45.8% |  |  |  |  |  |  |
| COc1ccc(C(=O)Nc2cc(-c3ccccc3)[nH]n2)cc1OC [JK-P3] | 7.5 ms | 30.8% | 7.5 ms | 45.8% |  | DFG in | 4.60 | cellular activity against FGFR1 |  |  |
| CN1CCN(c2ccc(NC(=O)c3n[nH]c4ccccc34)cc2)CC1 [JK-P5] | 7.5 ms | 22.1% | 7.5 ms | 32.2% |  | DFG in | 6.84 | cellular activity against FGFR1 |  |  |
| Cc1ccc(F)c(NC(=O)Nc2ccc(-c3cccc4[nH]nc(N)c34)cc2)c1 [Linifanib] | 7.5 ms | 55.0% | 7.7 ms | 92.8% |  | DFG out |  |  |  |  |
| Cc1ccc(C(=O)Nc2ccc(CN3CCN(C)CC3)c(C(F)(F)F)c2)cc1C#Cc1cnc2cccnn12 [Ponatinib] | 7.9 ms | 46.7% | 7.7 ms | 71.2% |  |  |  |  |  |  |
| CNC(=O)c1cc(Oc2ccc(NC(=O)Nc3ccc(Cl)c(C(F)(F)F)c3)cc2)ccn1 [Sorafenib] | 7.5 ms |  | 7.5 ms | 66.1% |  |  |  |  | 6.24 | type II |
